Tests used:
Staphylococcus. aureus [1] = test: Lab trials 2a (in vitro) for synergy, components added in wells for diffusion; format: cell-based
Source text: a) Lab trials 2a (in vitro) for synergy.

Staphylococcus. aureus [2] = test: Lab trials 2b (in vitro) for synergy, components added on top of the culture; format: cell-based
Source text: b) Lab trials 2b (in vitro) for synergy.

Substance: Peptidoglycan N-acetylmuramoylhydrolase [Lysozyme]
- Inhibition zone diameter In cm for Staphylococcus. aureus (Staphylococcus. aureus [1]): 1.15 cm
- Inhibition zone In diameter cm for Staphylococcus. aureus (Staphylococcus. aureus [2]): 1.1 cm
